Measured values published in patent US6737383B1, “Herbicidal oxadiazolidines” (priority 1999, dated 2004).

What was measured:
Settings in all cases: 0 to 100 scale, 0 no effect, 100 complete control
giant foxtail = assay: Test C postemergence giant foxtail; assay type: in vivo, Setaria faberii
Experimental: (§1) Compounds evaluated in this test were formulated in a non-phytotoxic solvent mixture which included a surfactant and applied to plants that were grown for various periods of time before treatment (postemergence application). A mixture of sandy loam soil and greenhouse potting mix in a 60:40 ratio was used for the postemergence test.
(§2) Plantings of these crops and weed species were adjusted to produce plants of appropriate size for the postemergence test. All plant species were grown using normal greenhouse practices. Crop and weed species include arrowleaf sida (Sida rhombifolia), barnyardgrass (Echinochloa crus-galli), cocklebur (Xanthium strumarium), common ragweed (Ambrosia elatior), corn (Zea mays), cotton (Gossypium hirsutum), eastern black nightshade (Solanum ptycanthum), fall panicum (Panicum dichotomiflorum), field bindweed (Convolvulus arvensis), giant foxtail (Setaria faberii), hairy beggarticks (Bidens pilosa), ivyleaf morningglory (Ipomoea hederacea), johnsongrass (Sorghum halepense), ladysthumb smartweed (Polygonum persicaria), lambsquarters (Chenopodium album), large crabgrass (Digitaria sanguinalis), purple nutsedge (Cyperus rotundus), redroot pigweed (Amaranthus retroflexus), soybean (Glycine max), surinam grass (Brachiaria decumbens), velvetleaf (Abutilon theophrasti) and wild poinsettia (Euphorbia heterophylla).
(§3) Treated plants and untreated controls were maintained in a greenhouse for approximately 14, to 21 days, after which all treated plants were compared to untreated controls and visually evaluated. Plant response ratings, summarized in Table C, were based upon a 0 to 100 scale where 0 was no effect and 100 was complete control. A dash response (−) means no test result.

surinam grass = assay: Test C postemergence surinam grass; assay type: in vivo, Brachiaria decumbens
Experimental: as §1, §2, §3

arrowleaf sida = assay: Test C postemergence arrowleaf sida; assay type: in vivo, Sida rhombifolia
Experimental: as §1, §2, §3

common ragweed = assay: Test C postemergence common ragweed; assay type: in vivo, Ambrosia elatior
Experimental: as §1, §2, §3

ladysthumb smartweed = assay: Test C postemergence ladysthumb smartweed; assay type: in vivo, Polygonum persicaria
Experimental: as §1, §2, §3

purple nutsedge = assay: Test C postemergence purple nutsedge; assay type: in vivo, Cyperus rotundus
Experimental: as §1, §2, §3

field bindweed = assay: Test C postemergence field bindweed; assay type: in vivo, Convolvulus arvensis
How it was run: (§4)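 Soil: sandy loam/potting mix 60:40. Treatment: postemergence, solvent + surfactant formulation. Readout: visual control score 0–100 vs untreated at ~14–21 days.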

barnyardgrass = assay: Test C postemergence barnyardgrass; assay type: in vivo, Echinochloa crus-galli
Experimental: as §1, §2, §3

ivyleaf morningglory = assay: Test C postemergence ivyleaf morningglory; assay type: in vivo, Ipomoea hederacea
Experimental: as §1, §2, §3

soybean = assay: Test C postemergence soybean; assay type: in vivo, Glycine max
Experimental: as §1, §2, §3

cotton = assay: Test C postemergence cotton; assay type: in vivo, Gossypium hirsutum
Experimental: as §1, §2, §3

johnsongrass = assay: Test C postemergence johnsongrass; assay type: in vivo, Sorghum halepense
How it was run: as §4

Compound: CC(C)N(C(=O)n1oc(=O)n(Cc2cccs2)c1=O)c1ccc(F)cc1 [Compound 80]
- Plant response rating, Giant foxtail (giant foxtail; Rate 140 g/ha): 0
- Plant response rating, Giant foxtail (giant foxtail; Rate 280 g/ha): 0
- Plant response rating, Giant foxtail (giant foxtail; Rate 560 g/ha): 0
- Plant response rating, Giant foxtail (giant foxtail; Rate 1120 g/ha): 20
- Plant response rating, Surinam grass (surinam grass; Rate 140 g/ha): 0
- Plant response rating, Surinam grass (surinam grass; Rate 280 g/ha): 0
- Plant response rating, Surinam grass (surinam grass; Rate 560 g/ha): 0
- Plant response rating, Surinam grass (surinam grass; Rate 1120 g/ha): 10
- Plant response rating Arrowleaf sida (arrowleaf sida; Rate 140 g/ha): 0
- Plant response rating Arrowleaf sida (arrowleaf sida; Rate 280 g/ha): 5
- Plant response rating Arrowleaf sida (arrowleaf sida; Rate 1120 g/ha): 30
- Plant response rating Common ragweed (common ragweed; Rate 140 g/ha): 0
- Plant response rating Common ragweed (common ragweed; Rate 280 g/ha): 0
- Plant response rating Common ragweed (common ragweed; Rate 560 g/ha): 5
- Plant response rating Common ragweed (common ragweed; Rate 1120 g/ha): 5
- Plant response rating Ladysthumb (ladysthumb smartweed; Rate 140 g/ha): 10
- Plant response rating Ladysthumb (ladysthumb smartweed; Rate 280 g/ha): 10
- Plant response rating Ladysthumb (ladysthumb smartweed; Rate 560 g/ha): 70
- Plant response rating Ladysthumb (ladysthumb smartweed; Rate 1120 g/ha): 70
- Plant response rating, Purple nutsedge (purple nutsedge; Rate 140 g/ha): 0
- Plant response rating, Purple nutsedge (purple nutsedge; Rate 280 g/ha): 0
- Plant response rating, Purple nutsedge (purple nutsedge; Rate 560 g/ha): 0
- Plant response rating, Purple nutsedge (purple nutsedge; Rate 1120 g/ha): 0
- Plant response rating Field bindweed (field bindweed; Rate 140 g/ha): 0
- Plant response rating Field bindweed (field bindweed; Rate 280 g/ha): 0
- Plant response rating Field bindweed (field bindweed; Rate 560 g/ha): 0
- Plant response rating Field bindweed (field bindweed; Rate 1120 g/ha): 0
- Plant response rating, Barnyardgrass (barnyardgrass; Rate 140 g/ha): 0
- Plant response rating, Barnyardgrass (barnyardgrass; Rate 280 g/ha): 10
- Plant response rating, Barnyardgrass (barnyardgrass; Rate 560 g/ha): 20
- Plant response rating, Barnyardgrass (barnyardgrass; Rate 1120 g/ha): 20
- Plant response rating I. morningglory (ivyleaf morningglory; Rate 140 g/ha): 0
- Plant response rating I. morningglory (ivyleaf morningglory; Rate 280 g/ha): 10
- Plant response rating I. morningglory (ivyleaf morningglory; Rate 560 g/ha): 30
- Plant response rating I. morningglory (ivyleaf morningglory; Rate 1120 g/ha): 50
- Plant response rating, Soybean (soybean; Rate 140 g/ha): 5
- Plant response rating, Soybean (soybean; Rate 280 g/ha): 20
- Plant response rating, Soybean (soybean; Rate 560 g/ha): 60
- Plant response rating Cotton (cotton; Rate 140 g/ha): 20
- Plant response rating Cotton (cotton; Rate 280 g/ha): 35
- Plant response rating Cotton (cotton; Rate 560 g/ha): 40
- Plant response rating Cotton (cotton; Rate 1120 g/ha): 40
- Plant response rating, Johnsongrass (johnsongrass; Rate 140 g/ha): 0
- Plant response rating, Johnsongrass (johnsongrass; Rate 280 g/ha): 0
- Plant response rating, Johnsongrass (johnsongrass; Rate 560 g/ha): 0
- Plant response rating, Johnsongrass (johnsongrass; Rate 1120 g/ha): 0

Compound: C=CCn1c(=O)on(C(=O)N(c2ccccc2)C(C)C)c1=O [Compound 93]
- Plant response rating, Giant foxtail (giant foxtail; Rate 140 g/ha): 10
- Plant response rating, Giant foxtail (giant foxtail; Rate 280 g/ha): 55
- Plant response rating, Giant foxtail (giant foxtail; Rate 560 g/ha): 80
- Plant response rating, Giant foxtail (giant foxtail; Rate 1120 g/ha): 95
- Plant response rating, Surinam grass (surinam grass; Rate 140 g/ha): 0
- Plant response rating, Surinam grass (surinam grass; Rate 280 g/ha): 45
- Plant response rating, Surinam grass (surinam grass; Rate 560 g/ha): 50
- Plant response rating, Surinam grass (surinam grass; Rate 1120 g/ha): 85
- Plant response rating Arrowleaf sida (arrowleaf sida; Rate 280 g/ha): 10
- Plant response rating Arrowleaf sida (arrowleaf sida; Rate 560 g/ha): 60
- Plant response rating Arrowleaf sida (arrowleaf sida; Rate 1120 g/ha): 60
- Plant response rating Common ragweed (common ragweed; Rate 140 g/ha): 5
- Plant response rating Common ragweed (common ragweed; Rate 280 g/ha): 10
- Plant response rating Common ragweed (common ragweed; Rate 560 g/ha): 10
- Plant response rating Common ragweed (common ragweed; Rate 1120 g/ha): 20
- Plant response rating Ladysthumb (ladysthumb smartweed; Rate 140 g/ha): 0
- Plant response rating Ladysthumb (ladysthumb smartweed; Rate 280 g/ha): 0
- Plant response rating Ladysthumb (ladysthumb smartweed; Rate 560 g/ha): 80
- Plant response rating, Purple nutsedge (purple nutsedge; Rate 140 g/ha): 0
- Plant response rating, Purple nutsedge (purple nutsedge; Rate 280 g/ha): 0
- Plant response rating, Purple nutsedge (purple nutsedge; Rate 560 g/ha): 0
- Plant response rating, Purple nutsedge (purple nutsedge; Rate 1120 g/ha): 10
- Plant response rating Field bindweed (field bindweed; Rate 140 g/ha): 0
- Plant response rating Field bindweed (field bindweed; Rate 280 g/ha): 0
- Plant response rating Field bindweed (field bindweed; Rate 560 g/ha): 0
- Plant response rating Field bindweed (field bindweed; Rate 1120 g/ha): 50
- Plant response rating, Barnyardgrass (barnyardgrass; Rate 140 g/ha): 70
- Plant response rating, Barnyardgrass (barnyardgrass; Rate 280 g/ha): 90
- Plant response rating, Barnyardgrass (barnyardgrass; Rate 560 g/ha): 90
- Plant response rating, Barnyardgrass (barnyardgrass; Rate 1120 g/ha): 95
- Plant response rating I. morningglory (ivyleaf morningglory; Rate 140 g/ha): 5
- Plant response rating I. morningglory (ivyleaf morningglory; Rate 280 g/ha): 10
- Plant response rating I. morningglory (ivyleaf morningglory; Rate 560 g/ha): 10
- Plant response rating I. morningglory (ivyleaf morningglory; Rate 1120 g/ha): 70
- Plant response rating, Soybean (soybean; Rate 140 g/ha): 40
- Plant response rating, Soybean (soybean; Rate 280 g/ha): 60
- Plant response rating, Soybean (soybean; Rate 560 g/ha): 80
- Plant response rating, Soybean (soybean; Rate 1120 g/ha): 85
- Plant response rating Cotton (cotton; Rate 140 g/ha): 15
- Plant response rating Cotton (cotton; Rate 280 g/ha): 30
- Plant response rating Cotton (cotton; Rate 560 g/ha): 70
- Plant response rating Cotton (cotton; Rate 1120 g/ha): 85
- Plant response rating, Johnsongrass (johnsongrass; Rate 140 g/ha): 0
- Plant response rating, Johnsongrass (johnsongrass; Rate 280 g/ha): 5
- Plant response rating, Johnsongrass (johnsongrass; Rate 560 g/ha): 85
- Plant response rating, Johnsongrass (johnsongrass; Rate 1120 g/ha): 90
